According to publication PMC12361428 (Nature Communications, 2025):
Where “and” joins values, the source holds several entries; their conditions need not be identical. Equal entries are not always repeated.

Assays:
A1AR = settings: source not given; cited from earlier work
[1] = tested on: Nluc-tagged hA3AR-BRIL-S97R; assay: NanoBRET washout (irreversible binding) assay vs XAC-630
[2] = tested on: A3AR H95^3.37 alanine mutation; settings: cited from earlier work

SMILES	pKi (A1AR)	NanoBRET washout assay, normalised signal (Figure S2G), individual replicates ([1]; 4 x Wash)	NanoBRET washout assay, normalised signal (Figure S2G), individual replicates ([1]; Control (no wash))	decrease in binding [2]
CCCn1c(=O)c2[nH]c(C3CCCCC3)nc2n(CCCNC(=O)c2ccc(S(=O)(=O)F)cc2)c1=O [DU172]	7.4			
O=C(Cc1ccccc1)Nc1nc2ccc(Cl)cc2c2nc(-c3ccco3)nn12 [MRS1220, 9-Chloro-2-(2-furanyl)-5-((phenylacetyl)amino)-[1,2,4]triazolo[1,5-c]quinazoline]		60.7809 and 60.2862 and 64.3691	11.5596 and 12.4414 and 6.2814 and 13.7989	
CNC(=O)[C@H]1O[C@@H](n2cnc3c(NCc4cccc(I)c4)nc(Cl)nc32)[C@H](O)[C@@H]1O [Namodenoson]				30 fold
CC[C@@H]1CN2C(=O)N(C)c3nc(-c4ccccc4)[nH]c3C2=N1 [PSB11]		116.307 and 107.384 and 90.4226 and 99.5492	1.581 and 3.183e-15 and -2.281 and -2.887e-15	
